Results published in patent US20220142955A1, “METHODS OF TREATING ORGANIC ACIDEMIAS” (HemoShear Therapeutics, Inc., priority 2019, published 2022).
Where two headings read alike, the source gives them in different places.

Columns and labels:
[1] = system: primary hepatocytes of propionic acidemia patients; assay: Reduction of 13C-propionyl-CoA and accumulation of compound-CoA ester after 13C-isoleucine challenge (Example 1); format: cell-based; conditions: Homo sapiens, Hepatocyte, 13C-labeled isoleucine, compound 0 μM to 1,000 μM
Description: Primary hepatocytes are isolated from explanted livers of propionic acidemia patients and are cultured on day 1 using standard protocols (see: Chapman et al. “Recapitulation of metabolic defects in a model of propionic acidemia using patient-derived primary hepatocytes” Mol. Genet. Metab. 2016, 117(3), 355-362). Approximately 2×10^5 hepatocytes are plated into each well of a collagen-coated 48-well tissue culture plate and pre-conditioned in a custom Modified Corning culture media for Hepatocells (Corning) without low levels of branched chain amino acids for 72 hours. On day 4, hepatocytes are treated with increasing doses of compound (0, 1, 3, 10, 30, 100, 300, 1000 μM) for 30 min. After 30 min the cells are challenged with ^13C-isoleucine (3 mM). At the end of the challenge period, cells are lysed in 100 μL of […] acetonitrile (MeCN) and 0.1% trifluoroacetic acid (TFA) containing 100 μM of ethymalonyl-CoA as an internal standard. Cells are removed from the well by scraping into the lysis buffer. The collected cellular samples are then dispensed into a microfuge tube. The plate wells are washed again with lysis buffer to ensure the remaining cells are dislocated from the well. All remaining collected cells are then moved into the centrifuge tube. The cellular samples are flash frozen in liquid nitrogen and stored at −80° C. To begin processing, the frozen cellular lysates are thawed on ice and vortexed. The samples are centrifuged at 20,000 g for 10 min at 4° C. and the total volume of supernatant is transferred to a no-bind 96-well plate on ice. The samples are dried under vacuum for about 2 hours and then resuspended in 150 μL of water in each well. Total volumes of samples are filtered through a prepared Durapore filter plate into a no-bind 96-well plate. The filtered samples are stored at −80° C. for HTMS/MS analysis.

[2] = system: MMA primary hepatocytes; assay: HemoShear Technology, MMA primary hepatocytes (Examples 10, 11); format: cell-based, human; conditions: for EC50 / EC90: Homo sapiens, Hepatocyte
[3] = system: PA primary hepatocytes; assay: Static cell culture, low/high propiogenic media, PA primary hepatocytes; format: cell-based, human; conditions: for EC50 / EC90: Homo sapiens, Hepatocyte
Description: Unlike the HemoShear Technology, this assay is carried out without constant perfusion, utilizing cell culture media that was customized to mimic plasma levels of propiogenic sources (amino acids and ketoacids) in PA and MMA patients during periods of relative metabolic stability (low propiogenic media) and acute metabolic crisis (high propiogenic media). PA and MMA pHeps, in static cell culture, were treated with Compound 5 (concentrations ranging from 0.1 μM to 100 μM) for 30 minutes in low propiogenic media, followed by either a continuation of low propiogenic media or a switch to the high propiogenic media for 1 hour. The media used during the 1-hour incubation contained propiogenic SIL amino acids and ketoacids which are metabolized into labeled P-CoA and M-CoA in the cells. The SIL amino acids and ketoacids were a mix of ^13C and MeD8 labelling, but their catabolism produced a SIL P-CoA (denoted as ^13C-P-CoA for simplicity) with the same mass, independent of the type of SIL (also true for ^13C-M-CoA).

[4] = MMA pHeps, HemoShear, average ± SD
[5] = PA pHeps, high propiogenic, static culture
[6] = PA pHeps, low propiogenic, static culture

CCC(C)(C)C(=O)O [Compound 5, 2,2-dimethybutanoic acid]
EC50 ([1]; read-out: concentration of 12C-Compound-CoA ester EC50): 0.95 µM | EC50 ([1]; read-out: concentration of 13C-propionyl-CoA EC50): 0.43 µM | EC50 ([2]; MMA donor 1, representative data (FIG. 7A), read-out: P-CoA reduction EC50): 3.9 µM | EC50 ([2]; MMA donor 1, representative data (FIG. 7B), read-out: M-CoA reduction EC50): 3.25 µM | EC50 ([2]; MMA donor 1, representative data (FIG. 7E), read-out: MCA reduction EC50): 1.66 µM | EC50 ([2]; MMA pHeps, HemoShear, average ± SD, read-out: 2-Methylcitric acid (2MC) EC50): 0.8 ± 0.5 µM | EC90 ([2]; MMA pHeps, HemoShear, average ± SD, read-out: 2-Methylcitric acid (2MC) EC90): 7.5 ± 6.4 µM | EC50 ([2]; MMA pHeps, HemoShear, average ± SD, read-out: 12C-Acetyl-Camitine (C2) EC50): 4.3 ± 2.2 µM | EC90 ([2]; MMA pHeps, HemoShear, average ± SD, read-out: 12C-Acetyl-Camitine (C2) EC90): 31.3 ± 26.9 µM | EC50 ([2]; MMA pHeps, HemoShear, average ± SD, read-out: 12C-Methylmalonyl-CoA (M-CoA) EC50): 2 ± 1.2 µM | EC90 ([2]; MMA pHeps, HemoShear, average ± SD, read-out: 12C-Methylmalonyl-CoA (M-CoA) EC90): 12.6 ± 12.9 µM | EC50 ([2]; MMA pHeps, HemoShear, average ± SD, read-out: 12C-Propionyl-Carnitine (C3) EC50): 1.4 ± 0.5 µM | EC90 ([2]; MMA pHeps, HemoShear, average ± SD, read-out: 12C-Propionyl-Carnitine (C3) EC90): 18.1 ± 16.2 µM | EC50 ([2]; MMA pHeps, HemoShear, average ± SD, read-out: 12C-Propionyl-CoA (P-CoA) EC50): 2.1 ± 1.5 µM | EC90 ([2]; MMA pHeps, HemoShear, average ± SD, read-out: 12C-Propionyl-CoA (P-CoA) EC90): 36.1 ± 30.1 µM | EC50 ([2]; MMA pHeps, HemoShear, read-out: CoASH EC50): 14.1 ± 8.4 µM | EC90 ([2]; MMA pHeps, HemoShear, read-out: CoASH EC90): 23.8 ± 20.2 µM | EC50 ([2]; MMA pHeps, HemoShear, read-out: Compound 5-CoA (formation) EC50): 3.5 ± 1.7 µM | EC90 ([2]; MMA pHeps, HemoShear, read-out: Compound 5-CoA (formation) EC90): 52.4 ± 45.6 µM | 12C-Acetyl-CoA Percent change at 30 μM ([2]; MMA pHeps, HemoShear): 13.5 ± 24.9% | CoASH Percent change at 30 μM ([2]; MMA pHeps, HemoShear): −22.3 ± 22.3% | average reduction in the C3/C2 ratio ([2]; MMA pHeps, HemoShear, at 30 μM): −2.2±0.2 log 2 fold change | 2-Methylcitric acid (2MC) % change at 30 μM [2, 4]: −66.7±14.9% | 12C-Acetyl-Camitine (C2) % change at 30 μM [2, 4]: 44.6 ± 26.8% | 12C-Methylmalonyl-CoA (M-CoA) % change at 30 μM [2, 4]: −55±6.6% | 12C-Propionyl-Carnitine (C3) % change at 30 μM [2, 4]: −65.9±10.7% | 12C-Propionyl-CoA (P-CoA) % change at 30 μM [2, 4]: −74.2±11.6% | EC50 ([3]; PA pHeps, high propiogenic media, static, read-out: 13C-Propionyl-CoA (13C-P-CoA) EC50): 1.7 ± 1 µM | EC90 ([3]; PA pHeps, high propiogenic media, static, read-out: 13C-Propionyl-CoA (13C-P-CoA) EC90): 11.6 ± 7.4 µM | EC50 ([3]; PA pHeps, high propiogenic, static culture, read-out: 12C-Acetyl-CoA EC50): 0.7 ± 0.5 µM | EC90 ([3]; PA pHeps, high propiogenic, static culture, read-out: 12C-Acetyl-CoA EC90): 1.9 ± 1.3 µM | EC50 ([3]; PA pHeps, high propiogenic, static culture, read-out: CoASH EC50): 2.1 ± 1.6 µM | EC90 ([3]; PA pHeps, high propiogenic, static culture, read-out: CoASH EC90): 11.1 ± 13 µM | EC50 ([3]; PA pHeps, high propiogenic, static culture, read-out: Compound 5-CoA (formation) EC50): 2.6 ± 1.6 µM | EC90 ([3]; PA pHeps, high propiogenic, static culture, read-out: Compound 5-CoA (formation) EC90): 42 ± 45.8 µM | EC50 ([3]; PA pHeps, low propiogenic media, static, read-out: 13C-Propionyl-CoA (13C-P-CoA) EC50): 2 ± 1.8 µM | EC90 ([3]; PA pHeps, low propiogenic media, static, read-out: 13C-Propionyl-CoA (13C-P-CoA) EC90): 6.9 ± 5.4 µM | EC50 ([3]; PA pHeps, low propiogenic, static culture, read-out: 12C-Acetyl-CoA EC50): 0.4 ± 0.2 µM | EC90 ([3]; PA pHeps, low propiogenic, static culture, read-out: 12C-Acetyl-CoA EC90): 1.6 ± 1.3 µM | EC50 ([3]; PA pHeps, low propiogenic, static culture, read-out: CoASH EC50): 0.9 ± 0.3 µM | EC90 ([3]; PA pHeps, low propiogenic, static culture, read-out: CoASH EC90): 9.1 ± 5.8 µM | EC50 ([3]; PA pHeps, low propiogenic, static culture, read-out: Compound 5-CoA (formation) EC50): 1.4 ± 0.6 µM | EC90 ([3]; PA pHeps, low propiogenic, static culture, read-out: Compound 5-CoA (formation) EC90): 15.3 ± 11.3 µM | EC90 ([3]; static cell culture, PA and MMA pHeps, low and high propiogenic media together, read-out: average EC90 value across all biomarkers): 11 ± 9.6 µM | 13C-Propionyl-CoA (13C-P-CoA) % change at 30 μM ([3]; PA pHeps, high propiogenic media, static): −85.3±9.1% | 12C-Acetyl-CoA Percent change (30 μM) [3, 5]: −27 ± 3.4% | CoASH Percent change (30 μM) [3, 5]: −48 ± 14.3% | 13C-Propionyl-CoA (13C-P-CoA) % change at 30 μM ([3]; PA pHeps, low propiogenic media, static): −76.4±12.6% | 12C-Acetyl-CoA Percent change (30 μM) [3, 6]: −36.6 ± 13.5% | CoASH Percent change (30 μM) [3, 6]: −55.2 ± 7.1%
